Assay results from publication PMC7587356, “High-Throughput Screening for Inhibitors of the SARS-CoV-2 Protease Using a FRET-Biosensor” (Molecules, 2020).
Where a name gives a salt, the structure may show the parent alone. Read-outs that look alike come from different tables or passages of the source.

Target: SARS-CoV-2 3CLpro (Severe acute respiratory syndrome coronavirus 2, UniProt P0DTD1)
Test: biochemical
Format: biochemical
Parameters: Replicate_1 / Replicate_2 / mean / mean (LOPAC_screen_w_protease): unit not given here
Conditions: for inhibition at 5 µM: 4 h
[1] = sheet LOPAC_screen_w_protease, primary screen of LOPAC1280 at 5 µM with protease, mean of the two replicates
[2] = sheet LOPAC_screen_w_protease, primary screen of LOPAC1280 at 5 µM with protease, replicate 1
[3] = sheet LOPAC_screen_w_protease, primary screen of LOPAC1280 at 5 µM with protease, replicate 2
[4] = sheet LOPAC_screen_w_protease, primary screen with protease, 5 µM, mean of two replicates, read-out: mean
[5] = sheet LOPAC_screen_w_protease, primary screen with protease, 5 µM, replicate 1, read-out: Replicate_1
[6] = sheet LOPAC_screen_w_protease, primary screen with protease, 5 µM, replicate 2, read-out: Replicate_2
[7] = sheet LOPAC_screen_w_protease, primary screen with protease, compound at 5 µM, mean of two replicates
[8] = sheet LOPAC_screen_w_protease, primary screen with protease, compound at 5 µM, replicate 1
[9] = sheet LOPAC_screen_w_protease, primary screen with protease, compound at 5 µM, replicate 2
[10] = sheet LOPAC_screen_w_protease, LOPAC1280 primary screen at 5 µM, with protease, replicate 1
[11] = sheet LOPAC_screen_w_protease, LOPAC1280 primary screen at 5 µM, with protease, replicate 2

Compound: CN1CC[C@]2(CCN3CCc4c(oc5ccccc45)[C@@H]3C2)N(C)C1=O [MK-912]
- mean (LOPAC_screen_w_protease) (LOPAC1280 primary screen with protease, 5 µM compound, mean of two replicates): 1.637
- Replicate_1 (LOPAC_screen_w_protease) (LOPAC1280 primary screen with protease, 5 µM compound, replicate 1): 1.746
- Replicate_2 (LOPAC_screen_w_protease) (LOPAC1280 primary screen with protease, 5 µM compound, replicate 2): 1.529

Compound: NNCCc1ccccc1 [Phenelzine sulfate]
- inhibition at 5 µM (read-out: Replicate_1): 0.173%
- inhibition at 5 µM (read-out: Replicate_2): -1.72%
- inhibition at 5 µM (read-out: mean): -0.773%

Compound: CCNC(=O)[C@H]1O[C@@H](n2cnc3c(N)nc(NCCc4ccc(CCC(=O)O)cc4)nc32)[C@H](O)[C@@H]1O.Cl [CGS-21680 hydrochloride]
- mean [1]: 3.628
- Replicate_1 [2]: 4.89
- Replicate_2 [3]: 2.366

Compound: CN(C)S(=O)(=O)c1ccc2c(c1)/C(=C/c1cc3c([nH]1)CCCC3)C(=O)N2 [SU 6656]
- inhibition at 5 µM (sheet LOPAC_screen_w_protease, LOPAC1280 primary screen with protease, 5 µM compound, mean of the two replicates, read-out: mean): 4.85%
- inhibition at 5 µM (sheet LOPAC_screen_w_protease, LOPAC1280 primary screen with protease, 5 µM compound, replicate 1, read-out: Replicate_1): 3.58%
- inhibition at 5 µM (sheet LOPAC_screen_w_protease, LOPAC1280 primary screen with protease, 5 µM compound, replicate 2, read-out: Replicate_2): 6.11%

Compound: O=C(Nc1ccc([N+](=O)[O-])cc1Cl)c1cc(Cl)ccc1O [Niclosamide]
- inhibition at 5 µM (read-out: Replicate_1): 5.53%
- inhibition at 5 µM (read-out: Replicate_2): 4%
- inhibition at 5 µM (read-out: mean): 4.76%

Compound: CCn1cc(C(=O)O)c(=O)c2cc3c(cc21)OCO3 [Oxolinic acid]
- inhibition at 5 µM (sheet LOPAC_screen_w_protease, primary screen of LOPAC1280 at 5 µM with protease, mean of the two replicates, read-out: mean): 3.24%
- inhibition at 5 µM (sheet LOPAC_screen_w_protease, primary screen of LOPAC1280 at 5 µM with protease, replicate 1, read-out: Replicate_1): 3.47%
- inhibition at 5 µM (sheet LOPAC_screen_w_protease, primary screen of LOPAC1280 at 5 µM with protease, replicate 2, read-out: Replicate_2): 3%

Compound: C=CCc1ccccc1OCC(O)CNC(C)C (stereo not drawn) [Alprenolol hydrochloride]
- inhibition at 5 µM [4]: 0.137%
- inhibition at 5 µM [5]: 0.164%
- inhibition at 5 µM [6]: 0.11%

Compound: Nc1ccc(CCNc2ncnc3c2ncn3[C@@H]2O[C@H](CO)[C@@H](O)[C@H]2O)cc1 [N6-2-(4-Aminophenyl)ethyladenosine]
- mean [1]: 3.204
- Replicate_1 [2]: 3.6817
- Replicate_2 [3]: 2.726

Compound: CC[C@H](C)[C@H]1O[C@]2(CC[C@@H]1C)C[C@@H]1C[C@@H](C/C=C(\C)[C@@H](O[C@H]3C[C@H](OC)[C@@H](O[C@H]4C[C@H](OC)[C@@H](O)[C@H](C)O4)[C@H](C)O3)[C@@H](C)/C=C/C=C3\CO[C@@H]4[C@H](O)C(C)=C[C@@H](C(=O)O1)[C@]34O)O2 [Ivermectin]
- mean [7]: 2.889
- Replicate_1 [8]: 2.826
- Replicate_2 [9]: 2.952

Compound: COc1cc2c(cc1C(F)(F)F)N(C(=O)Nc1cc(F)cc(-c3cccnc3)c1)CC2 [SB 228357]
- mean (sheet LOPAC_screen_w_protease, primary screen with protease, mean of two replicates): 2.5367
- Replicate_1 (sheet LOPAC_screen_w_protease, primary screen with protease, replicate 1): 3.509
- Replicate_2 (sheet LOPAC_screen_w_protease, primary screen with protease, replicate 2): 1.565

Compound: CCCN(CCC)CCc1c[nH]c2ccc(C(N)=O)cc12.O=C(O)/C=C\C(=O)O
- mean [1]: 3.512
- Replicate_1 [2]: 3.371
- Replicate_2 [3]: 3.653

Compound: COc1ccccc1N1CCN(CCCNc2c(C)c(=O)n(C)c(=O)n2C)CC1 [Urapidil, 5-Methyl-]
- mean (sheet LOPAC_screen_w_protease, LOPAC1280 primary screen at 5 µM, with protease, mean of two replicates): -1.384
- Replicate_1 [10]: -1.313
- Replicate_2 [11]: -1.455

Compound: CCCNC(C)C(=O)Nc1ccccc1C (stereo not drawn) [Prilocaine hydrochloride]
- inhibition at 5 µM [4]: 0.116%
- inhibition at 5 µM [5]: 0.518%
- inhibition at 5 µM [6]: -0.285%

Compound: CN(CCOc1ccc(C[C@H](Nc2ccccc2C(=O)c2ccccc2)C(=O)O)cc1)c1ccccn1 [GW1929]
- mean (sheet LOPAC_screen_w_protease, LOPAC1280 at 5 µM, mean of two replicates): 1.294
- Replicate_1 (sheet LOPAC_screen_w_protease, LOPAC1280 at 5 µM, replicate 1): 1.2073
- Replicate_2 (sheet LOPAC_screen_w_protease, LOPAC1280 at 5 µM, replicate 2): 1.38

Compound: Oc1ccc2c3c1O[C@H]1[C@@H](O)CC[C@@]4(O)[C@@H](C2)N(CC2CCC2)CC[C@]314 [Nalbuphine hydrochloride]
- inhibition at 5 µM (read-out: Replicate_1): 4.1%
- inhibition at 5 µM (read-out: Replicate_2): 4.27%
- inhibition at 5 µM (read-out: mean): 4.19%

Compound: O=C1OC(=O)[C@H]2[C@@H]1[C@@H]1CC[C@H]2O1 [Norcantharidin]
- mean [7]: 2.796
- Replicate_1 [8]: 1.684
- Replicate_2 [9]: 3.909

Compound: CC(=O)SCC[N+](C)(C)C.[Cl-] [Acetylthiocholine chloride]
- mean (sheet LOPAC_screen_w_protease, LOPAC1280 primary screen at 5 µM, with protease, mean of the two replicates): 0.4496
- Replicate_1 [10]: 1.2654
- Replicate_2 [11]: -0.3662

Compound: COc1cc(Cc2cnc(N)nc2N)cc(OC)c1OC [Trimethoprim]
- inhibition at 5 µM (read-out: Replicate_1): -0.343%
- inhibition at 5 µM (read-out: Replicate_2): -3.24%
- inhibition at 5 µM (read-out: mean): -1.79%

Compound: Ic1ccccc1CNC1C2CCN(CC2)C1C(c1ccccc1)c1ccccc1.O=C(O)C(=O)O [L-703,606 oxalate]
- mean [1]: 3.6584
- Replicate_1 [2]: 4.135
- Replicate_2 [3]: 3.181
